Experiments:
HIV-1 protease = target: T1, HIV-1 protease (Human immunodeficiency virus type 1 group M subtype B, UniProt P04585); test: Assay for inhibitory effect on HIV protease (time-dependent inactivation, HPLC readout of oligopeptide substrate cleavage); type: biochemical; conditions: second order rate constant; 2.6nM HIV-1 protease; 50mM sodium acetate, pH 0.5; KINSIM/FITSIM program
T1 construct: addition of 2.6nM of HIV-1 protease
Experimental: The inhibitory effect on HIV protease of the compounds of the present invention was determined by the following method.
To a buffer solution comprising 50mM sodium acetate, pH 0.5, 1mM dithiothreitol(DTT), 1mM ethylenediamine-tetraacetate (EDTA), 0.75M ammonium sulfate and 0.1% NP 40(NONIGET P-40; Sigma Chemical Co., U.S.A.) was added a measured amount of a compound selected from Compound Nos. 1 to 12 to prepare a preincubation solution. Inhibition reaction was started with the addition of 2.6nM of HIV-1 protease to the preincubation solution. Each of 10µl sample of the reaction solution taken at a given time interval was added to 80µl of assay solution containing […] of reaction substrate in the same buffer solution as above to assay for the residual enzyme activity. In this context, an oligopeptide consisting of 11 amino acids, i.e., H-His-Lys-Ala-Arg-Val-Leu-Phe-(p-NO2)-(Glu-Ala-Ile-Ser-NH2), was used as a reaction substrate, which oligopeptide was to be cleaved in two by the breakage of amide bond between Leu and Phe-(P-NO2) upon the attack of HIV protease. The reaction rate was determined by subjecting the substrate before the reaction and the product after the reaction to HPLC separation and then measuring the relative amount of the product, using the strong absorbance of (p-NO2)-Phe at 280nm. The amounts of reduction in enzyme activity according to the elapsed time were measured and the natural logarithmic values(ln) of the measured amounts were plotted against time to obtain a linear graph and kobs was calculated from the slope of the linear graph.
The inhibition constant was calculated according to the following equation: (1)/(kobs)=(1)/(kina)+(KI)/(kina)(1)/([I]) [formula] wherein: kobs is a rate constant indicating the rate of reduction in enzyme activity according to the elapsed time under the presence of a given concentration of inhibitor, kina is a rate constant indicating the rate of chemical reaction forming covalent bond between an enzyme and an inhibitor in Michaelis-Menten complex, KI is an inhibition constant indicating the dissociation rate of Michaelis-Menten complex into an enzyme and an inhibitor, and [I] means the inhibitor concentration.
The above equation is applicable to an experiment carried out under the condition in which the concentration of inhibitor is far higher than that of enzyme (Steady State Kinetic). […] The inhibition constants KI and kina and second order rate constant kina/KI were obtained by inputting the value of [E]/([E]+[EI]+[EI']) into KINSIM/FITSIM program. In case that second order rate constant kina/KI is larger than 10^9, it is hard to calculate the exact values by KINSIM/FITSIM program [Williams, J.W. and Morrison, J.F., Methods, Enzymol., 63, 437-466([…]); and Zimmerle, C.T. and Frieden, C., J. Biochem., 258, 381-387(1989)].

H9 cell or Sup T1 cell = test: Cytotoxicity by trypan blue dye exclusion; type: cell-based; conditions: concentration that causes death of cells by 50%, 0.1µM to 100µM tested
Experimental: The medium was refreshed every 3 days and the extent of cell proliferation was observed using Hemacytometer according to the trypan blue dye exclusion technique which is well known in the art. CT50(i.e., concentration that causes death of cells by 50%) was determined.

HIV-1 = test: Anti-viral activity: syncytium formation (Sup T1) or reverse transcriptase assay (H9); type: cell-based; conditions: Human immunodeficiency virus 1, concentration that inhibits the proliferation of HIV by 50%, H9 or Sup T1 cell lines, 200 TCID50 of HIV-1
Experimental: The anti-viral activity of the compounds of the present invention was determined by measuring the concentration of the compounds that inhibits the proliferation of HIV by 50%(IC50) through a survey for syncytium formation or reverse transcriptase assay.
1 x 10^5 cells of each of H9(ATCC HTB 176) and Sup T1 cell lines were added to the wells of a 24-well microtiter plate and various concentrations of the compounds of the present invention were added thereto. 200 TCID50(200-fold of 50% tissue culture infection dose) of HIV-1 inoculum and rpmi-1640 medium(Sigma Chemical Co., U.S.A) were added successively to the wells and the plate was incubated at 37°C. In case of Sup T1, the number of syncytium formed was investigated after 3 to 9 days. IC50 of each compound was determined by measuring the concentration of inhibitor that can reduce the number of syncytium by 50% compared with those formed in the same condition without the inhibitor.
In case of H9, three-quarters(3/4) of the culture medium in volume was refreshed every 3 days; and after 9 days, 6ml of the culture fluid was taken and 2.5ml of 30% polyethyleneglycol(PEG, M.W. 6000-8000) and 0.4M NaCl were added thereto. The resulting solution was allowed to stand at 0°C overnight to precipitate virus particles. The solution was centrifuged at 2000rpm for 45 minutes, the supernatant was discarded therefrom and the precipitate was diluted with 20µl of a reverse transcriptase suspension buffer(50mM tris-HCl, pH 7.5, 1mM dithiothreitol, 20% glycerol, 0.25M KCl and 0.25% Triton X-100). The resulting suspension was stored in an Effendorf tube at -70°C until used. A procedure of freezing said virus suspension for 2 minutes in dry ice and thawing same at 37°C for 2 minutes was repeated three times and the resulting suspension was centrifuged at 4°C. The resulting supernatant was used in carrying out the reverse transcriptase assay.
10µl of the said viral suspension was added to a solution of: 10µl of buffer solution(250mM tris-HCl, pH 7.5, 37.5mM MgCl2, 0.25% triton X-100), 1.2µl of 200mM dithiothreitol, 5µl of 100µM oligo(dT)-poly(A)(Boeringer Manheim, 12-18 oligomer), 1µl(1µCi) of ^3H-TTP(Thymidinetri-phosphate) and 23.6µl of water; and the resulting mixture was placed at 37°C. After 1 hour, the mixture was poured onto a WHATMAN DEB1 filter and the filter was washed three times with 5ml of 2 x SSC buffer solution(17.53g of sodium chloride, 8.82g of sodium citrate, pH 7.0, 1 liter of water) for about 10 minutes each time and twice with 95% methanol for 10 seconds. The filter was put onto aluminum foil and dried with an infra-red lamp. The amount of radioactivity was counted using a liquid scintillation counter.

Compound | kina/KI (HIV-1 protease) | CT50 (H9 cell or Sup T1 cell) [µM] | IC50 (HIV-1) [nM]
CC(C)[C@@H](Cc1ccccc1)NC(=O)OC[C@@H]1O[C@@H]1[C@H](Cc1ccccc1)NC(=O)[C@H](CC(N)=O)NC(=O)c1ccc2ccccc2n1 [Example 1, 4S-[N-(2-quinolinecarbonyl)-L-asparaginyl]amino-(3R,2S)-epoxy-5-phenylpentyl N-2R-(1-phenyl-3-methylbutyl) carbamate] | 10^9 - 10^10 min^-1M^-1 | >10 | 125
CC(C)[C@H](NC(=O)OC[C@@H]1O[C@@H]1[C@H](Cc1ccccc1)NC(=O)[C@H](CC(N)=O)NC(=O)c1ccc2ccccc2n1)c1ccccc1 [Example 2] | 10^9 - 10^10 min^-1M^-1 | >10 | 130
CC(C)C(NC(=O)OC[C@@H]1O[C@@H]1[C@H](Cc1ccccc1)NC(=O)[C@H](CC(N)=O)NC(=O)c1ccc2ccccc2n1)C(C)C [Example 3] | 10^9 - 10^10 min^-1M^-1 | >10 | 110
CC(C)[C@@H](Cc1ccccc1)NC(=O)OC[C@@H]1O[C@@H]1[C@H](Cc1ccccc1)NC(=O)[C@@H](NC(=O)OCc1ccccc1)C(C)(C)S(C)(=O)=O [Example 4, 4S-[(N-benzyloxycarbonyl)-β-methanesulfonyl-L-valinyl]amino-(3R,2S)-epoxy-5-phenyl-1-pentyl N-2R-(1-phenyl-3-methylbutyl) carbamate] | 10^9 - 10^10 min^-1M^-1 | >10 | 15
CC(C)[C@H](NC(=O)OC[C@@H]1O[C@@H]1[C@H](Cc1ccccc1)NC(=O)[C@@H](NC(=O)OCc1ccccc1)C(C)(C)S(C)(=O)=O)c1ccccc1 [Example 5] | 10^9 - 10^10 min^-1M^-1 | >10 | 50
CC(C)C(NC(=O)OC[C@@H]1O[C@@H]1[C@H](Cc1ccccc1)NC(=O)[C@@H](NC(=O)OCc1ccccc1)C(C)(C)S(C)(=O)=O)C(C)C [Example 6] | 10^9 - 10^10 min^-1M^-1 | >10 | 50
CC(C)[C@@H](Cc1ccccc1)NC(=O)OC[C@@H]1O[C@@H]1[C@H](Cc1ccccc1)NC(=O)[C@@H](NC(=O)c1ccc2ccccc2n1)C(C)(C)S(C)(=O)=O [Example 7, 4S-[N-(2-quinolinecarbonyl)-β-methanesulfony]-L-valinyl]amino-(3R,2S)-epoxy-5-pheny]-1-pentyl N-2S-(1-phenyl-3-methylbutyl) carbamate] | 10^9 - 10^10 min^-1M^-1 | >10 | 20
CC(C)[C@H](NC(=O)OC[C@@H]1O[C@@H]1[C@H](Cc1ccccc1)NC(=O)[C@@H](NC(=O)c1ccc2ccccc2n1)C(C)(C)S(C)(=O)=O)c1ccccc1 [Example 8] | 10^9 - 10^10 min^-1M^-1 | >10 | 100
CC(C)C(NC(=O)OC[C@@H]1O[C@@H]1[C@H](Cc1ccccc1)NC(=O)[C@@H](NC(=O)c1ccc2ccccc2n1)C(C)(C)S(C)(=O)=O)C(C)C [Example 9] | 10^9 - 10^10 min^-1M^-1 | >10 | 80
CC(C)[C@@H](Cc1ccccc1)NC(=O)OC[C@@H]1O[C@@H]1[C@H](Cc1ccccc1)NC(=O)[C@@H](NC(=O)COc1cccc2cnccc12)C(C)(C)S(C)(=O)=O [Example 10, 4S-[N-(5-isoquinolinyloxymethylenecarbonyl)-β-methanesulfonyl-L-valinyl]amino-(3R,2S)-epoxy-5-phenyl-1-pentyl N-2R-(1-phenyl-3-methylbutyl) carbamate] | 10^9 - 10^10 min^-1M^-1 | >10 | 12
CC(C)[C@H](NC(=O)OC[C@@H]1O[C@@H]1[C@H](Cc1ccccc1)NC(=O)[C@@H](NC(=O)COc1cccc2cnccc12)C(C)(C)S(C)(=O)=O)c1ccccc1 [Example 11] | 10^9 - 10^10 min^-1M^-1 | >10 | 15
CC(C)C(NC(=O)OC[C@@H]1O[C@@H]1[C@H](Cc1ccccc1)NC(=O)[C@@H](NC(=O)COc1cccc2cnccc12)C(C)(C)S(C)(=O)=O)C(C)C [Example 12] | 10^9 - 10^10 min^-1M^-1 | >10 | 50
